This assay has as its system human differentiated macrophages (THP‐1). The assay can be described thus: LPS‐induced inflammatory responses in human differentiated macrophages (THP‐1), siNC or siLrp8. The class given is cell-based. The procedure:
To determine whether the suppressive effects of sclerostin on inflammatory responses in macrophages were dependent on ApoER2 in vitro, PMA (100 ng/mL, 48 h)‐induced human differentiated macrophages (THP‐1 cells, Procell Life Science & Technology, CL‐0233) and mouse macrophages (RAW 264.7 cells, ATCC, TIB‐71) were utilized. Human differentiated macrophages or mouse macrophages were divided into 9 groups (n = 3 per group), respectively, including (1) siNC, (2) siNC + LPS, (3) siNC + LPS + SOST 500 nM or 250 nM, (4) siNC + LPS + SOST 1 µM or 500 nM, (5) siNC + LPS + SOST 2 µM or 1 µM, (6) siLrp8 + LPS + SOST 500 nM or 250 nM, (7) siLrp8 + LPS + SOST 1µM or 500 nM, (8) siLrp8 + LPS + SOST 2 µM or 1 µM, (9) siLrp8 + LPS. Cells in groups (6‐9) were transfected with siRNA targeting human/mouse Lrp8 (human siLrp8: Santa Cruz Biotechnology sc‐40097, mouse siLrp8: Santa Cruz Biotechnology sc‐40098), while cells in groups (1‐5) were transfected with empty vector as control (siNC). 24 h later, cells in group (3)/(6), (4)/(7), and (5)/(8) were treated with recombinant human or mouse sclerostin for 3 h at concentration of 500 nM or 250 nM, 1 µM or 500 nM, as well as 2 µM or 1 µM, respectively, while cells in groups (1), (2), and (9) were treated with vehicle. Then, cells in groups (2‐9) were treated with LPS (100 ng/mL or 1 µg/mL) for 18 h. All groups of cell lysates were collected for determining the mRNA expression levels of TNF‐α, MCP‐1, and IL‐10 (human or mouse, respectively) by RT‐PCR.^[ [34] ^] Cell mediums were collected for determining the protein expression/secretion levels of TNF‐α, MCP‐1, and IL‐10 (human or mouse, respectively) by ELISA.^[ [34] ^]
Total RNA was extracted from cells following the protocols of Trizol reagent (Invitrogen, 15 596 026). […] The relative gene expression levels were calculated using the 2^−ΔΔCt method with GAPDH as the reference gene.^[ [40] ^] […]

Setting [1] is: THP‐1, LPS 100 ng/mL 18 h, recombinant human sclerostin 500 nM-2 µM for 3 h, RT‐PCR and ELISA, n = 3.

Turning to “sclerostin: recombinant human/mouse full‐length sclerostin protein”, under setting [1], the “mRNA expression and protein expression/secretion of IL‐10” value is reported as “promoted”; the “mRNA expression and protein expression/secretion of TNF‐α and MCP‐1” value is “inhibited”. Further, the “Effects of sclerostin on cytokine/chemokine expression/secretion upon Lrp8 silencing” value (THP‐1 with siLrp8, LPS 100 ng/mL 18 h) is on record as “not detected”.
